The text below walks through data of patent US10844051B2, “Substituted oxazoles for the treatment of cancer” (THE ROYAL INSTITUTION FOR THE ADCANCEMENT OF …, priority 2015, dated 2020).

For orientation: Kd means the constant that tells how readily two partners part at equilibrium.

The structures appear in SMILES notation. “Also recorded” adds a separate entry of the source.

Data set [1] has as its target T1, recombinant protein of human GATA2 (Homo sapiens, UniProt P23769).
T1 sequence (P23769 1-480): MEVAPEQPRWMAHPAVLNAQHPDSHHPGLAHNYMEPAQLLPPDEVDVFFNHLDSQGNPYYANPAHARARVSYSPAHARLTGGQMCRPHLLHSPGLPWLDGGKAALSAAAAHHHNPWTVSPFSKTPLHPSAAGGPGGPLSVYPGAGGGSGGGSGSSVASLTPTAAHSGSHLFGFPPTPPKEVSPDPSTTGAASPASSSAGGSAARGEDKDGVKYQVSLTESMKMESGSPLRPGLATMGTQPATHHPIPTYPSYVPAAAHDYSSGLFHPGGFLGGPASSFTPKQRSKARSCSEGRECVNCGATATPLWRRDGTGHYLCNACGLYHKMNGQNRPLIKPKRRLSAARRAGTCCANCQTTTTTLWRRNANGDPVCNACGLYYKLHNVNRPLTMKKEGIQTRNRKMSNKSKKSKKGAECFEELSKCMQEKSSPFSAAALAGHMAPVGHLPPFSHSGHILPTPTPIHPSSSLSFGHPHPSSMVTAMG
Kind of data set: SPR analysis on amine-coupled GATA2. It is filed as binding. The note with it: 50 μM each. An excerpt:
In embodiments of the invention, the androgen-bound AR is regressing GATA2 expression and inhibition of AR via castration or use of antiandrogen releases such expression. […] Overexpression of GATA2 confers resistance to antiandrogen bicalutamide (Bic) (FIG. 2.9). Compound 673 is effective against the LNCaP stably transfected with GATA2-expressing plasmid (referred to as LNCaP-GATA2 cells) (FIG. 2.8).
For orientation: SPR reads the build-up and loss of mass on a sensor chip optically.

Data set [2] addresses T2, human STING (hSTING) (Homo sapiens, UniProt Q86WV6).
T2 construct: expressed in transfected cells; host or cells: 293T
As to the kind of experiment: hSTING ISRE-luc reporter assay in 293T cells. The format is cell-based. Particulars: 24 hours. The procedure:
ISRE-luc (reporter), pRL-TK (internal control) and hSTING-expressing plasmids were transiently transfected into 293T cells. Cells were exposed to DMSO vehicle control or compounds for 24 hours. Experiments were done in triplicate.
(In general: Reporter assays use an easily measured gene product as a stand-in for the process of interest.)

The target in data set [3] is T3, ESE-1 (Homo sapiens, UniProt P78545).
T3 construct: expressed in transfected cells; host or cells: HEK293
T3 sequence (P78545 1-371): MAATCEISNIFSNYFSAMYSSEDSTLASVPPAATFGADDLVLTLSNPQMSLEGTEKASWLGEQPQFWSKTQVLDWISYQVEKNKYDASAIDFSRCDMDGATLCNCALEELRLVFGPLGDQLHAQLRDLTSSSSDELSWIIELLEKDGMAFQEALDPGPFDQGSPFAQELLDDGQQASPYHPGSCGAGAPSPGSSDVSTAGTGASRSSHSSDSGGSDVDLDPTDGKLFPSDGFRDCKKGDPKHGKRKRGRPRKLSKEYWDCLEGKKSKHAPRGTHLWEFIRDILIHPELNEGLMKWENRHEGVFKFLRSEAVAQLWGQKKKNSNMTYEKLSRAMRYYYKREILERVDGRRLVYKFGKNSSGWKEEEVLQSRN
As to the kind of experiment: ESE-1 dependent reporter assay in HEK293 cells. The note with it: 48 hours. The format is cell-based. The procedure:
(§1) HEK293 cells were transiently transfected with empty vector (for the NT) or ERG-expressing plasmid as well as pRL-TK (internal control) and PUx3-Luc reporter. Cells were then exposed to DMSO vehicle or compounds at designated doses for 48 hours. Experiments were done in triplicate.
Experiments were done as described above in FIG. 1.1a) except that ERG plasmid was replaced by ESE-1 plasmid.

Data set [4] has as its system EZH2, c-Myc and ERG expression in VCaP cells. As to the kind of experiment: Expression of EZH2, c-Myc and ERG in VCaP cells. The format is cell-based. The note with it: 10 μM, 72 hours. The procedure:
VCaP cells were exposed to DMSO vehicle control, 648, 698 and 891 at 10 μM for 72 hours in DMEM medium plus 10% FBS or phenol red-free DMEM medium plus 10% charcoal-stripped FBS (CS-FBS).

Data set [5] deals with T4, ERG (Homo sapiens, UniProt P11308).
T4 sequence (P11308 1-486 isoform P11308-3): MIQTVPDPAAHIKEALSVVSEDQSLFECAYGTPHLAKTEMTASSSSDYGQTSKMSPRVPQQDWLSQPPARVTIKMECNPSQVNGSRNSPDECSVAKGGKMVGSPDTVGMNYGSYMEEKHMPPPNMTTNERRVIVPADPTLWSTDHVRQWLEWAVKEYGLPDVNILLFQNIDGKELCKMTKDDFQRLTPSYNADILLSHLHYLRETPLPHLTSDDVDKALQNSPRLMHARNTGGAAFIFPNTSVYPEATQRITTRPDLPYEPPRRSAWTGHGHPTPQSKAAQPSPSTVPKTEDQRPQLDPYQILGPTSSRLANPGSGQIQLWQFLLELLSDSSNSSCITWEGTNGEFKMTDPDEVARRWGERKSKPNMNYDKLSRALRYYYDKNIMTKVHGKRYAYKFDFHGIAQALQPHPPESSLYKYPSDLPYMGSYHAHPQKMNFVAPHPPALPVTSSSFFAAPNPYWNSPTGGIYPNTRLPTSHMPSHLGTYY
As to the kind of experiment: ERG-dependent reporter assay in HEK293 cells. The format is cell-based. Particulars: PUx3-Luc reporter, 48 hours, designated doses. On the set-up: expressed in transfected cells; host or cells: HEK293. The procedure: as §1

Data set [6] deals with T5, human GATA2 (Homo sapiens, UniProt P23769).
T5 construct: expressed in transfected cells; host or cells: IHH
T5 sequence (P23769 1-480): T1 sequence (P23769 1-480)
Kind of data set: GATA2-dependent reporter assay in IHH cells. Particulars: GATA-Luc reporter, 48 h. The format is cell-based. The procedure: K7174 is a known GATA2 inhibitor. The IHH cells were transiently transfected with empty vector (for the NT) or human GATA2-expressing plasmid as well as pRL-TK (internal control) and GATA-Luc reporter plasmids. Cells were exposed to DMSO vehicle or compounds for 48 h. Experiments were in triplicate.

In data set [7] the target is T6, human GATA3 (Homo sapiens, UniProt P23771).
T6 construct: expressed in transfected cells; host or cells: IHH
T6 sequence (P23771 whole entry): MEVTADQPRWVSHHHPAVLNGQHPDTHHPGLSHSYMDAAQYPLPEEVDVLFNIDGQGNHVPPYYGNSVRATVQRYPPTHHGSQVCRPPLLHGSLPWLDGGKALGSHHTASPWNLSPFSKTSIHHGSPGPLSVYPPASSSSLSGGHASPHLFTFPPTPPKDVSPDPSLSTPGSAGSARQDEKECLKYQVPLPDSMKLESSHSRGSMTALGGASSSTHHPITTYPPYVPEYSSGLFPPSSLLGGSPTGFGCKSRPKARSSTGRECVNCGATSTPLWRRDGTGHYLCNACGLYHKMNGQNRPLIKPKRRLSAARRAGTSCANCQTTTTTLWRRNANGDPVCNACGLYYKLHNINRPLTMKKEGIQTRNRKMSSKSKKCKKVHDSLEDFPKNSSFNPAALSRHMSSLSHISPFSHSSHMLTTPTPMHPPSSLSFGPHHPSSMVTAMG
Kind of data set: GATA3-dependent reporter assay in IHH cells. The format is cell-based. Particulars: 48 hours, 10 μM. The procedure:
The IHH cells were transiently transfected with empty vector (for the NT) or human GATA3-expressing plasmid as well as pRL-TK (internal control) and GATA-Luc reporter plasmids. Cells were exposed to DMSO vehicle or compounds for 48 hours. Experiments were done in triplicate.

Data set [8] addresses T7, recombinant human KRAS 12D mutant protein (Homo sapiens, UniProt P01116, G12D).
T7 construct: purchased ORIGENE TP700052
Kind of data set: SPR analysis on amine-coupled KRAS (G12D mutant). The format is binding. Particulars: for Kd: PBS-T containing 1 μM GDP, steady-state. The procedure:
FIG. 4.1 SPR analysis. Left panels, SPR sensorgrams for compounds 784 and 895 binding to 3500 RU amine-coupled KRAS (G12D mutant) at 25 μL/min in PBS-T containing 1 μM GDP. Right panels, corresponding non-linear regression analyses of steady-state binding responses versus concentration to determine apparent equilibrium dissociation constants (KD).
Since activation of KRAS leads to activation of NF-kB,^69 we performed in vitro screening of our compounds by KRAS mutant-dependent NF-kB-luc reporter assay in HEK293 cells. […] Also, compounds of the invention are cytotoxic to PANC 10.05 pancreatic cancer cells, H23 NSCLC cells and HCT-116 colorectal cancer cells (FIG. 4.5).

The test system of data set [9] is phosphorylation of ERK in Panc 10.05 cells. As to the kind of experiment: Western blot, phosphorylation of ERK in Panc 10.05 cells. It is filed as cell-based. Particulars: 24 hours. The procedure: (§2) C-PARP, cleaved PARP. Panc10.05 cells were exposed to DMSO vehicle or compounds at designated doses for 24 hours.
Panc10.05 cells were exposed to DMSO vehicle or compounds at designated doses for 24 hours.
On the technique in general: A western blot detects proteins with antibodies after separation by electrophoresis.

Data set [10] concerns Panc 10.05 cells. Kind of data set: Western blot, apoptosis (cleaved PARP) in Panc 10.05 cells. Particulars: 24 hours. It is filed as cell-based. The procedure:
as §2

Data set [11] concerns phosphorylation of ERK in HCT-116 cells. As to the kind of experiment: Western blot, phosphorylation of ERK in HCT-116 cells. The format is cell-based. Particulars: 10 μM, 24 hours. The procedure:
HCT-116 cells were exposed to DMSO vehicle or compounds at designated doses for 24 hours.

Data set [12] has as its system H23 KRAS-mutant NSCLC cells. Kind of data set: MTT assay, H23. The note with it: endogenous KRAS 12C, 72 hours. It is filed as cell-based. The procedure: FIG. 2.7 Compound 673 is cytotoxic in KRAS-mutant NSCLC cells (A549 and H23), but is not toxic the KRAS wild-type NSCLC cells (H322). Cells were exposed to vehicle or compounds (μM) for 72 hours. Viable cells were evaluated by MTT assays.
(§3) Panc 10.05, H23 and HCT-116 cells express endogenous KRAS 12D, 12C and 13D mutants, respectively. Cells were exposed to DMSO vehicle or compounds at designated doses for 72 hours. Experiments were done in triplicate.

The subject of data set [13] is Panc10.05 pancreatic cancer cells. Kind of data set: MTT analysis, Panc10.05. It is filed as cell-based. Particulars: endogenous KRAS 12D, 72 hours. The procedure:
as §3

Data set [14] concerns HCT-116 colorectal cancer cells. As to the kind of experiment: MTT analysis, HCT-116. The note with it: endogenous KRAS 13D, 72 hours. The format is cell-based. The procedure: as §3

T7 sequence (P01116 1-188 isoform P01116-2 G12D): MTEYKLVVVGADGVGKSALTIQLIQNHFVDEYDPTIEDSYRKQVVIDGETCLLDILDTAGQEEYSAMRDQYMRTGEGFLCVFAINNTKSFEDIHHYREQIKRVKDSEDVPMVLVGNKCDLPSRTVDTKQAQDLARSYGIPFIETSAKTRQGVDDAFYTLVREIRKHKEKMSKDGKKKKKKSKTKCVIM
T2 sequence (Q86WV6 whole entry H232R): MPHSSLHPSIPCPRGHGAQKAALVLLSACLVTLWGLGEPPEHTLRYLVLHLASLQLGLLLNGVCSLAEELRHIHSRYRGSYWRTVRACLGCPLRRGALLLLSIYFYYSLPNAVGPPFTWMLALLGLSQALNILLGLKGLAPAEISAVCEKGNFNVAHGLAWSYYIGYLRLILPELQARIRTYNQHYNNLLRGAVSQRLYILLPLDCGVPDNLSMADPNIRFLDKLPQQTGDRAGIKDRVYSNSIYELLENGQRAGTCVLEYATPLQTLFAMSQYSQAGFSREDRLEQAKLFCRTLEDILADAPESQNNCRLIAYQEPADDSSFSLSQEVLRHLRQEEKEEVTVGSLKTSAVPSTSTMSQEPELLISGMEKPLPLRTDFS

`COc1ccc(-c2nc(CCCc3c[nH]c4ccccc34)oc2-c2ccc(OC)cc2)cc1` [Compound 670]: in data set [1], the “binding to amine-coupled GATA2 (SPR)” value is on record as “Direct binding; also recorded: Specific binding”. Besides, in [2], the “activation of hSTING in ISRE-luc reporter assay” value was “activate human STING (hSTING)”.

For the compound `Oc1ccc(-c2nc(Cc3c[nH]c4ccccc34)oc2-c2ccc(O)cc2)cc1` [Compound 698], the “ESE-1 inhibition in ESE-1 dependent reporter assay” value in data set [3] is listed as “ESE-1 inhibitors”. Moreover, in data set [4], the “inhibition of expression of EZH2, c-Myc and ERG” value is “inhibit expression of EZH2, c-Myc and ERG”. Moreover, the “activation of hSTING in ISRE-luc reporter assay” value in data set [2] is listed as “activate hSTING”. The “ERG inhibition in ERG-dependent reporter assay” value in data set [5] is on record as “ERG inhibitors”.

Consider `O=C(Cc1c[nH]c2ccccc12)NCc1nc(-c2ccccc2)c(-c2ccccc2)o1` [Compound 784], for which the “GATA2 inhibition in GATA2-dependent reporter assay” value in data set [6] is given as “GATA2 inhibitors”. In data set [7], the “activity against GATA3 in GATA3-dependent reporter assay” value was “inactive against GATA3”. Also, in [8], the “direct binding with KRAS G12D mutant (SPR)” value is “Direct binding” and the Kd is 190 µM. Further, the “suppression of phosphorylation of ERK (Western blot)” value (from here on “suppression”) in [9] (designated doses) is recorded as “dose-dependently suppressed phosphorylation of ERK”. For the same compound, the “induction of apoptosis (cleaved PARP, Western blot)” value in data set [10] is on record as “induced apoptosis”.

Turning to `Oc1ccccc1-c1nc(Cc2c[nH]c3ccccc23)oc1-c1ccccc1O` [Compound 891], the “inhibition of expression of EZH2, c-Myc and ERG” value in data set [4] was “inhibit expression of EZH2, c-Myc and ERG”.

Consider `COc1ccc(CC/C(=C/C(=O)N2CCC(O)(c3ccccc3)CC2)c2ccccc2)cc1F` [Compound 895], for which, in data set [8], the “direct binding with KRAS G12D mutant (SPR)” value was “Direct binding” and the Kd is 45 µM. For the same compound, in data set [9] (designated doses), the “suppression” value is recorded as “dose-dependently suppressed phosphorylation of ERK”. Moreover, in [10], the “induction of apoptosis (cleaved PARP, Western blot)” value is given as “induced apoptosis”. In addition, in data set [11], the “suppression” value is reported as “potently suppressed phosphorylation of ERK”.

`N#CCN(CCc1c[nH]c2ccccc12)Cc1nc(-c2cccc(F)c2)c(-c2cccc(F)c2)[nH]1` [Compound 1186]: the “inhibition of proliferation of H23 cells (MTT)” value in [12] is on record as “dose-dependently inhibit proliferation”. Moreover, the “suppression” value in [9] (10 μM) and in [11] was “potently suppressed phosphorylation of ERK” each time. For the same compound, in data set [13], the “inhibition of proliferation of Panc10.05 cells (MTT)” value was “dose-dependently inhibit proliferation”. The “inhibition of proliferation of HCT-116 cells (MTT)” value in data set [14] is “dose-dependently inhibit proliferation”.

Consider `COc1ccc(CC/C(=C/C(=O)N2CCN(c3ccccc3OC)CC2)c2ccccc2)cc1F` [Compound 1261], for which the “inhibition of proliferation of H23 cells (MTT)” value in data set [12] is “dose-dependently inhibit proliferation”. Besides, in [13], the “inhibition of proliferation of Panc10.05 cells (MTT)” value is recorded as “dose-dependently inhibit proliferation”. Besides, in [14], the “inhibition of proliferation of HCT-116 cells (MTT)” value was “dose-dependently inhibit proliferation”.

As for `Fc1ccccc1CSc1ncnc2c1ncn2C1CCCO1` (stereo not drawn) [Compound V131], the “ESE-1 inhibition in ESE-1 dependent reporter assay” value in data set [3] is recorded as “ESE-1 inhibitors”. Besides, in data set [5], the “ERG inhibition in ERG-dependent reporter assay” value is reported as “potent inhibitor of ERG; also recorded: ERG inhibitors”.

Turning to `O=C(CC(O)(CCc1ccccc1)c1ccccc1)N1CCC(O)(c2ccccc2)CC1` (stereo not drawn) [Compound V248], the “GATA2 inhibition in GATA2-dependent reporter assay” value in [6] is reported as “GATA2 inhibitors”. Moreover, the “binding to amine-coupled GATA2 (SPR)” value in [1] was “Direct binding; also recorded: Specific binding”.
